logP data for 12 molecules are collected here from the SangsterLogP compilation.

This data set in a line: method code SF-HPLC, from DOI: 10.1016/0378-5173(85)90030-4.
Broadly, the logP is the decadic logarithm of the partition coefficient of the neutral form, usually between octanol and water. `CCCC(=O)OCn1ncc2c(=O)[nH]cnc21` had a logP of 0.6.

Take `CC(C)(C)C(=O)OCn1cc2c(=O)[nH]cnc2n1`: the logP was 0.79.

Molecule `CC(=O)OCn1ncc2c(=O)[nH]cnc21` gave a logP of -0.35.

The molecule `CC(C)(C)C(=O)OCn1cc2c(=O)n(COC(=O)C(C)(C)C)cnc2n1` registered a logP of 2.34.

As for `CCN(CC)C(=O)CCC(=O)OCn1ncc2c(=O)[nH]cnc21`, the logP is -0.22.

Consider `CCCC(=O)OCn1cc2c(=O)[nH]cnc2n1`, for which the logP was 0.33.

Turning to `CCOC(=O)OCn1ncc2c(=O)[nH]cnc21`, the logP worked out at 0.21.

For the molecule `CC(C)(C)C(=O)OCn1ncc2c(=O)[nH]cnc21`, the logP amounted to 1.07.

Take `CC(C)(C)C(=O)OCn1cnc2c(cnn2COC(=O)C(C)(C)C)c1=O`: the logP was 2.5.

As to `O=C(OCn1ncc2c(=O)[nH]cnc21)c1cccnc1`, the logP is 0.27.

`CCCC(=O)OCn1cnc2c(cnn2COC(=O)CCC)c1=O` registered a logP of 1.82.

For the molecule `O=C(OCn1ncc2c(=O)[nH]cnc21)c1ccccc1`, the logP is 1.5.
